The results in this text go back to US20140113904A1, “TREATMENT OF CANCER WITH TOR KINASE INHIBITORS” (SIGNAL PHARMACEUTICALS, LLC, priority 2012, published 2014).

Assay [1] deals with CD-31. Put plainly: CD-31 immunohistochemistry in PC3 tumors (Compound 1). The class given is in vivo, SCID mice. The note with it: 25 mg/kg oral QD for 6 days, 2 hours after last dose. Here is the method: Two hours after the last dose of either vehicle, Compound 1, or rapamycin, the mice were euthanized and the tumors were dissected. The tumors were snap frozen in liquid nitrogen and processed for immunohistochemistry (IHC) and TUNEL.
Five to ten micron thick cryostat sections of tumor samples were used for IHC. The expression of a cell proliferation marker Ki-67 was evaluated by IHC using anti-Ki-67 antibody. Anti-CD-31 antibody was used to determine blood vessel density and is a measurement of tumor angiogenesis. Frozen sections were fixed in 4% paraformaldehyde for 10 minutes at room temperature, washed in PBS, blocked and permeabilized with normal goat serum and triton x-100. Sections were then incubated with primary antibody (overnight) followed by incubation with secondary antibody (60 minutes). […] The sections were visualized with a Nikon E800 microscope equipped with fluorescence detection equipment and a digital camera attached to a computer.
The tissues sections processed for apoptosis or immunostained for proliferating cells (Ki-67) or blood vessels were quantitated using Metamorph software. Using 20× objective, 5 different fields from each section, 2 to 4 sections from each tumor, and 3 to 4 tumors from each treatment group or control were used for quantitation. The area of interest was expressed as the percent threshold area of the total area.

Assay [2] has as its system 4EBP1 (T46). The assay is described as follows: p-4E-BP1 (T46) in PC-3 cell lysates, ELISA (Compound 2). It counts as cell-based. To be noted: Homo sapiens; PC-3, 1 hour; read-out: mTORC1 4EBP1 (T46) IC50. Here is the method: The direct substrate for mTORC1 was 4E-BP1([…]) and the indirect downstream substrate was S6RP (S235/[…]). The direct substrate for mTORC2 was AKT (S473) and the indirect downstream substrates measured were GSK3β(S9) and PRAS40 ([…]). Additionally, the phosphorylation status of AKT (T308), a phosphorylation site for PDK1, was monitored. Concentration-response curves were plotted and IC50 values determined. Cells were plated at the required density as described in the previous section detailing the Meso Scale assays. […] After incubation with compound, the culture medium was removed via aspiration. Then the plate was placed on ice and 35 μL of the Invitrogen Cell Extraction Buffer (containing fresh PMSF and protease inhibitor cocktail) were added to each well. The treated cells were allowed to undergo lysis for a total of 30 minutes on ice and then shaken for 2 minutes at 4° C. At this point, the plate could be either frozen at -80° C. for later analysis or analyzed immediately with the Invitrogen 4E-BP1[[…]] assay kit. Standards were prepared according to the supplied protocol and 100 μL of each standard was added to appropriate wells. Samples containing Cell Extraction buffer only or diluent buffers only also were included for background controls. […] Absorbance was measured at 450 nm on the VICTORTM X2 multilabel plate reader (Perkin Elmer).
A general note: ELISA stands for enzyme-linked immunosorbent assay.

Each structure is given as a SMILES string.

For `CO[C@H]1CC[C@H](N2C(=O)CNc3ncc(-c4ccc(C(C)(C)O)nc4)nc32)CC1` [Compound 1, 7-(6-(2-hydroxypropan-2-yl)pyridin-3-yl)-1-((1r,4r)-4-methoxycyclohexyl)-3,4-dihydropyrazino-[2,3-b]pyrazin-2(1H)-one], the “CD-31 positive blood vessels vs vehicle” value in assay [1] was “significantly (p<0.01) fewer”.

A word on the IC50: it is the concentration that gives 50% inhibition. With `CCN1C(=O)CNc2ncc(-c3ccc(-c4nc[nH]n4)nc3C)nc21` [Compound 2, 1-ethyl-7-(2-methyl-6-(1H-1,2,4-triazol-3-yl)pyridin-3-yl)-3,4-dihydropyrazino[2,3-b]pyrazin-2(1H)-one], the IC50 in assay [2] is 130 nM.
